Data set [1] concerns N-Rel cells. Nature of the data set: Membrane cholesterol and cholesterol ester analysis (colorimetric kit) in N-Rel cells. The class given is cell-based, Chinese hamster. The settings on record: for membrane free cholesterol / membrane cholesterol esters (esterified cholesterol): 20 μM, 48 hr incubation; for membrane cholesterol levels: N-Rel cells. Here is the method: (§1) Chinese hamster ovary (CHO), N-Rel^30 (a mutant CHO cell line deficient in the peroxisomal enzyme dihydroxyacetonephosphate acyltransferase), and human embryonic kidney (HEK293) cells were grown in 10 cm^2 dishes in DMEM/Ham's F12 (1:1) containing 10% FBS. Cells were incubated with plasmalogen precursors dissolved in ethanol (final ethanol concentration of 0.1%) and harvested for plasmalogen analysis by LC-MS-MS^31, and cholesterol and cholesterol ester analyses utilizing a commercial colorimetric kit (BioVision #K613).

Data set [2] has as its system HEK293 cells. In words: Cholesterol assay (free/esterified cholesterol) in HEK293 cells. It counts as cell-based, human. The settings on record: for membrane cholesterol (membrane free cholesterol levels): 20 μM. Here is the method: as §1
(§2) HEK 293 cells, cultured in DMEM, 10% FBS at 37° C., 5% CO2, were seeded the day before the treatment. The following day, cells membranes were loaded with exogenous cholesterol at a concentration of 10 μg/ml media using methyl-β-cyclodextrin as the carrier to deliver cholesterol as described (Rong et al., 2003).
Cells were treated with the plasmalogen precursor PPI-1005 or with ethanol as the control. Cells were harvested after 48 hours using Versene: TryPLe express cocktail, washed with PBS. Lipids were extracted with chloroform containing 1% Triton X-100. The organic fraction was recovered and dried under a stream of nitrogen. The dried lipids were resuspended in cholesterol reaction buffer (Biovision, Mountain View, Calif.), and the total, free and esterified fractions of cholesterol were quantified using the cholesterol quantification kit (Biovision, Mountain View, Calif.) as per the manufacturer's recommendations. Cholesterol was initially calculated as μg/million cells, and reported as a percentage of control conditions for each experiment.

A short description of data set [3]: Oral dosing of rabbits: plasma plasmalogens, phosphatidylethanolamines and DHA by LC-MS/MS. The class given is in vivo, New Zealand rabbits. As for the experimental part:
(§3) Male New Zealand rabbits (1.8-2.5 kg) were orally dosed with PPI-1011, neat in hard gelatin capsules (size 3). For time course studies, rabbits were dosed with 200 mg/kg of PPI-1011 and animals sacrificed via euthenol overdose at 1, 3, 6, 12, 18, 24 and 48 hr. Blood was collected by cardiac puncture and plasma frozen at −70° C. for later analysis. Kidney and liver also were harvested and stored at −70° C. for later analysis. These studies were conducted as 2 experiments with overlapping groups at 12 hrs (Exp. 1: 1, 3, 6, and 12 hrs; Exp. 2: 12, 18, 24 and 48 hrs). Controls were harvested at each timepoint. Plasmalogens and lipids were extracted and analyzed by LC-MS/MS as previously reported (Goodenowe et al., 2007).

A short description of data set [4]: Oral dosing of rabbits: kidney plasmalogens and DHA. The class given is in vivo, New Zealand rabbits. The settings on record: 200 mg/kg orally; 1, 3, 6 and 12 hours. Here is the method: as §3
Data set [5] in a line: Oral dosing of rabbits: liver plasmalogens and DHA. It counts as in vivo, New Zealand rabbits. The settings on record: 200 mg/kg orally; 12, 18, 24 and 48 hours. Here is the method: as §3
The subject of data set [6] is N-Rel cells. In words: Plasmalogen analysis by LC-MS/MS in N-Rel cells incubated with plasmalogen precursors. The class given is cell-based, Chinese hamster. The settings on record: for conversion to PlsEtn species: cells with impaired plasmalogen biosynthesis capacity (N-Rel). As for the experimental part: as §1
Data set [7] deals with CHO cells. Nature of the data set: Plasmalogen analysis by LC-MS/MS in CHO cells incubated with plasmalogen precursors. It counts as cell-based, Chinese hamster. Particulars: for DHA plasmalogens in CHO cells: 72 hr, relative to CHO controls; for conversion to PlsEtn species: cells with unimpaired plasmalogen biosynthesis capacity (CHO). As for the experimental part: as §1
In data set [8] the test system is HEK293 cells. Nature of the data set: Amyloid assay: Aβ secreted into conditioned medium of HEK293 cells (ELISA). The class given is cell-based, human. Particulars: for levels of AB-40 / levels of AB-42: normal cells and cholesterol loaded cells. Here is the method:
as §2
HEK293 cells were loaded with exogenous cholesterol as described, and treated with a PPI 1005 or with ethanol as a control. Conditioned media from the treated cells was collected at the end of a 48 hour incubation period. For assaying Aβ1-42 content, the conditioned media was enriched using Amicon ultracentrifugal filter devices (Millipore, Billerica, Mass.) prior to loading into the microplate. ELISA was carried out as per the manufacturer's recommendations (Covance Labs, Princeton, N.J.). The reactions were quenched 25 minutes after addition of the substrate, and the absorbance was read at 495 nm. The experiment was carried out in triplicate. Values were calculated as pg/ml of conditioned media, and were normalized to the amount of Aβ detected in the conditioned media from untreated, cholesterol loaded control HEK293 cells.
On the technique in general: ELISA stands for enzyme-linked immunosorbent assay.

The test system of data set [9] is ADAM10. Nature of the data set: Immunoblotting of membrane-resident protein ADAM10 in HEK293 cells. It counts as cell-based, human. As for the experimental part: (§4) HEK293 cells were treated as described in the amyloid assay. The cell pellet was washed in PBS and lysed in a RIPA buffer containing a protease inhibitor cocktail (Sigma, St. Louis, […].). Protein in the cell lysate was quantified using the Bio-Rad Protein Assay (Bio-Rad, Hercules, Calif.). The following antibodies were used for western analyses: APP (Calbiochem, Darmstadt, Germany), BACE1 and ADAM10 (Millipore, Temecula, Calif.), sAPPα (IBL, Gunma, Japan), SOAT1 (Santa Cruz Biotechnology Inc., CA), and β-actin (Sigma, St. Louis, […].). Immunoprecipitation was carried out to estimate sAPPα in the conditioned medium. Briefly, antibody to sAPPα was added to conditioned media and incubated for 16 hours at 4° C. IP was carried out by incubating with protein A/G agarose beads for 6 hours at 4° C. Beads were washed with PBS and the eluted proteins were detected by immunoblotting with anti-sAPPα antibody. Band intensities were quantified using Image Processing and Analysis in Java (ImageJ) software (National Institutes of Health, Bethesda, Md.)
A general note: Immunoblotting shows a protein as a band on a membrane.

The subject of data set [10] is SOAT1. Nature of the data set: Immunoblotting of membrane-resident protein SOAT1 in HEK293 cells. The class given is cell-based, human. Here is the method:
as §4

Data set [11] deals with BACE1. In words: Immunoblotting of BACE1 (β-secretase) in HEK293 cells. The class given is cell-based, human. Here is the method: as §4
The subject of data set [12] is APP. Nature of the data set: Immunoblotting of APP in HEK293 cells. The class given is cell-based, human. Particulars: wild-type HEK293 cells, not loaded with cholesterol. As for the experimental part:
as §4

In data set [13] the test system is sAPPα. Nature of the data set: Immunoprecipitation/immunoblot of sAPPα in conditioned medium of HEK293 cells. The class given is cell-based, human. The settings on record: 20 μM; cholesterol loaded HEK293 cells. As for the experimental part:
as §4

Setting [14] is: cholesterol loaded HEK293 cells (FIG. 18A).
The mark [15] stands for this setting: wild-type HEK293 cells, not loaded with cholesterol.

Take `CCC=CCC=CCC=CCC=CCC=CCC=CCCC(=O)OC(CO)COC(=O)CCCCCCCCCCCCCCC` (stereo not shown) [16:0*:DHA glycerol, reference compound]: in data set [1], the membrane free cholesterol entry was “inactive”. In addition, the “membrane cholesterol (membrane free cholesterol levels)” value in [2] (48 hr incubation) is “inactive”.
In the case of `CC/C=C\C/C=C\C/C=C\C/C=C\C/C=C\C/C=C\CCC(=O)OC(COCCCCCCCCCCCCCCCC)COC(=O)CCCC[C@@H]1CCSS1` (stereo partly drawn) [PPI-1011, (4Z,7Z,10Z,13Z,16Z,19Z)-1-(5-((R)-1,2-dithiolan-3-yl)pentanoyloxy)-3-(hexadecyloxy)propan-2-yl docosa-4,7,10,13,16,19-hexaenoate], the “new steady-state level of plasma plasmalogens and phosphatidylethanolamines versus dose” value in data set [3] (6 hours after oral doses of 10, 75, 200 mg/kg) was “dose-dependent manner from 10 to 200 mg/kg”. Besides, the “steady-state levels of circulating DHA” value in data set [3] (dose of 1000 mg/kg versus 500 mg/kg) is recorded as “did not further increase”. Also, in data set [3] (further increases in dose (500, 1000 mg/kg), 6 hours), the “steady-state levels of plasmalogens and phosphatidylethanolamines above that obtained with 200 mg/kg” value was “did not increase”. Also, in data set [3] (oral dose of 200 mg/kg), the “deacylation at sn-2, releasing docosahexaenoic acid (DHA)” value is “observed” and the “reference phosphatidylethanolamine 16:0/18:0 in plasma” value is “No change”. For the same compound, in data set [3] (oral dose of 200 mg/kg, rabbit plasma), the “incorporation into circulating plasmalogens” value was “incorporated into circulating plasmalogens”. Further, in [3] (rabbit), the oral bioavailability entry is reported as “orally bioavailable”. Further, the “tissue plasmalogens and DHA in rabbit kidney” value in [4] is recorded as “augmentation”. The “tissue plasmalogens and DHA in rabbit liver” value in [5] is listed as “augmentation”.
Consider `CC/C=C\C/C=C\C/C=C\C/C=C\C/C=C\C/C=C\CCC(=O)OC(CO)COCCCCCCCCCCCCCCCC` (stereo not shown) [PPI-1005], for which the “levels of total DHA plasmalogens in N-Rel cells, relative to control CHO cells” value in data set [6] (72 hr incubation) was “restored in a concentration-dependent manner”. Further, in data set [6] (N-Rel cells), the DHA-PlsEtn level is 80 % of control values. Further, the “conversion to PlsEtn species” value in [6] is reported as “effectively converted to PlsEtn species”. In data set [7], the “DHA plasmalogens in CHO cells” value is given as “concentration-dependent (72 hr) increase” and the “conversion to PlsEtn species” value is reported as “effectively converted to PlsEtn species”. Moreover, in [1], the “membrane cholesterol esters (esterified cholesterol)” value is given as “increases”, the membrane free cholesterol result is “decreases” and the membrane cholesterol levels entry is listed as “significant reduction”. For the same compound, in data set [2] (48 hr incubation), the “membrane cholesterol (membrane free cholesterol levels)” value is recorded as “decrease”. In addition, the “free cholesterol content of the cell membrane” value in data set [2] (cholesterol loaded HEK293 cells, 48 hours) is recorded as “significantly reduced”. For the same compound, the “basal and cholesterol (25.8 μM)-stimulated Aβ42 secretion” value in data set [8] (20 μM) is “decreases”. In addition, in [8] (20 μM, cholesterol loaded HEK293 cells, 48 hour incubation), the “Aβ42 content in the conditioned medium, drop below cholesterol-loaded levels” value was found to be 70%. In data set [8], the “levels of AB-40” value is recorded as “decreased” and the “levels of AB-42” value is reported as “decreased”. In addition, the “increase in ADAM10” value in data set [9] (setting [14]) came out at 63%. In data set [9] (setting [15]), the “concentration-dependent increase in abundance of ADAM10” value amounted to 35%. The “SOAT1 upregulation compared with the cholesterol loaded condition” value in data set [10] (setting [14]) is “approximately 25%”. Moreover, in data set [10] (setting [15]), the “concentration-dependent increase in abundance of SOAT1” value stood at 50%. Also, in data set [11] (20 μM, cholesterol loaded HEK293 cells), the β-secretase abundance result is given as “restored to normal levels”. The “BACE I abundance” value in [11] (setting [15]) was “No change”. For the same compound, the APP abundance result in data set [12] is “No change”. In addition, the “increase in sAPPα species in the conditioned medium” value in data set [13] stood at 73%.
Regarding `CC/C=C\C/C=C\C/C=C\C/C=C\C/C=C\C/C=C\CCC(=O)OC(COCCCCCCCCCCCCCCCC)COC(=O)CC(C[N+](C)(C)C)OC(C)=O` (stereo not shown) [PPI-1009, 2-acetoxy-4-(2-((4Z,7Z,10Z,13Z,16Z,19Z)-docosa-4,7,10,13,16,19-hexaenoyloxy)-3-(hexadecyloxy)propoxy)-N,N,N-trimethyl-4-oxobutan-1-aminium], the “time course of incorporation into plasmalogens” value in [6] (10 μM, 0, 6, 12, 24, 48 and 72 hr) is listed as “incorporation into plasmalogens”. The “cellular levels of chimyl alcohol or the associated alkenyl-acyl-glycerol” value in [6] (10 μM, 0-72 hr, chimyl alcohol by GC-MS) is listed as “lack of effect”. Further, the “conversion to PlsEtn species” value in data set [6] is “effectively converted to PlsEtn species”. Further, in data set [7], the “DHA plasmalogens in CHO cells” value is recorded as “concentration-dependent (72 hr) increase” and the “conversion to PlsEtn species” value was “effectively converted to PlsEtn species”. Also, in data set [1], the “membrane cholesterol esters (esterified cholesterol)” value is reported as “augmentation”, the membrane free cholesterol result is given as “most robust decreases” and the membrane cholesterol levels result is “concentration-dependently decrease”. In addition, the “membrane cholesterol levels, concentration response” value in [2] (48 hr incubation) is “concentration-dependently decrease”. The “basal and cholesterol (25.8 μM)-stimulated Aβ42 secretion” value in [8] (10 μM) is recorded as “acted in a similar manner”. In addition, in data set [8], the “levels of AB-40” value is reported as “decreased” and the “levels of AB-42” value is “decreased”.
For the compound `CC/C=C\C/C=C\C/C=C\C/C=C\C/C=C\C/C=C\CCC(=O)OC(COCCCCCCCCCCCCCCCC)COC(=O)C(CS)NC(C)=O` (stereo not shown) [PPI-1014, (4Z,7Z,10Z,13Z,16Z,19Z)-1-(2-acetamido-3-mercaptopropanoyloxy)-3-(hexadecyloxy)propan-2-yl docosa-4,7,10,13,16,19-hexaenoate], the “incorporation in N-Rel ethanolamine plasmalogens (PlsEtn) and phosphatidylethanolamines (PtdEtn)” value in data set [6] (72 hours, 5, 10 and 20 μM) is “structure-specific and concentration-dependent incorporation”.
`CCC=CCC=CCC=CCC=CCC=CCC=CCCC(=O)OC(CO)COCCCCCCCCCCCCCCCCCC` (stereo not shown) [18:0/DHA glycerol]: the “membrane cholesterol (membrane free cholesterol levels)” value in data set [2] (48 hr incubation) is “decrease”.
On to `CCCCCCCCCCCCCCCCOCC(O)CO` (stereo not shown) [chimyl alcohol, reference compound], for which the “DHA-plasmalogens in N-Rel cells” value in data set [6] (expressed relative to N-Rel controls) is “increased”. In addition, the “DHA plasmalogens in CHO cells” value in [7] is reported as “no effect”.

Source of the values: patent US9334235B2, “Plasmalogen compounds, pharmaceutical compositions containing the same and methods for treating diseases of the aging” (Phenomenome Discoveries Inc., priority 2008, dated 2016).
